Laboratory results from patent publication US20220249592A1, “MUSCLE QUALITY IMPROVEMENT AGENT” (AJINOMOTO CO., INC., priority 2019, published 2022).
*1 amine or outer side, *2 acyl side, *3 side chain or, on linkers, in order; H or OH if unused. Where a SMILES comes first, the peptide text is derived from it. γGlu = O=C(O)[C@H](CCC(=O)[*:2])N[*:1]

Columns and labels:
[1] = tested on: mouse-derived muscle cell line C2C12; assay: Muscle insulin signal (phosphorylated Akt/total Akt phosphorylation index) in C2C12 myotube cells exposed to palmitic acid (FFA); format: cell-based; details: for insulin signal that declined due to FFA: 500 μM
Procedure: Muscle anabolic signal was monitored by insulin signal, and the action of γ-glutamyl peptide on the decline of insulin signal was evaluated. As the γ-glutamyl peptide, the actions of γ-L-glutamyl-L-valine (γEV), γ-L-glutamyl-L-cysteine (γEC), and γ-L-glutamyl-L-valylglycine (γEVG) were evaluated.
The evaluation was performed using an evaluation system in which exposure of the mouse-derived muscle cell line C2C12 to saturated fatty acid results in a decline in insulin signal, as described below.
Using mouse C3H skeletal muscle myoblast cell line (C2C12 cell) (DS Pharma Biomedical Co., Ltd.), the evaluation was performed.
Induction of differentiation into myotube cells (Myotubes) was performed using cells with myoblast passage number of 12 to 18. Myoblasts were seeded in a 12-well (diameter=3 cm) plate at 0.3×10^5 to 0.5×10^5 cells/well. After confirmation that the cell proliferation state reached 90% confluent, the medium was replaced with DMEM supplemented with 2 (w/v) % horse serum (HS) and 1 (w/v) % penicillin-streptomycin-glutamine (2 (w/v) % HS, 1 (w/v) % P/S, 1 (w/v) % Gln/DMEM), and differentiation into myotube cells (Myotubes) was induced. After confirmation of differentiation into myotube cells (Myotubes), a muscle insulin signal evaluation system was constructed, and the action of each of γEV, γEC, and γEVG was evaluated using the constructed evaluation system.
The myotube cells (Myotubes) were cultured overnight (17 hr to 24 hr) at 37° C. in a 0.5 mM palmitic acid (FFA)/0.5 (w/v) % albumin (BSA)/DMEM culture medium in the presence of 5 (v/v) % carbon dioxide.
After culturing overnight, the cells were preincubated for about 2 hr in DMEM (BSA/FFA free), stimulated by incubation (15 min to 20 min) with 100 nM insulin, and the myotube cells were collected (each n=1 to 2). From the collected cells, proteins were extracted with RIPA (Radio-Immunoprecipitation Assay) buffer (Cell Signaling Technologies Inc.), adjusted to a final protein concentration of 0.5 mg/mL, and used as samples.
The expression levels of phosphorylated Akt (pAkt) (Ser473) (#9271S; Cell Signaling Technologies Inc.), and total Akt (#9272S; Cell Signaling Technologies Inc.) in the above-mentioned sample were quantified by the Western blotting (WB) method. The expression level of each protein was quantified using Western blot-chemiluminescent imaging system (Fusion FX) (Vilber-Lourmat Inc.).
Each γ-glutamyl peptide was added simultaneously with FFA, and the muscle quality-improving effect was examined with the recovery of the muscle insulin signal as an index. The final concentration of γEV was adjusted to 100 μM or 300 μM, and the final concentrations of γEC and […] were adjusted to 500 μM. As a positive control, an antioxidative active substance N-acetylcysteine (NAC) 5 mM was used.
From the measurement results of the expression levels of phosphorylated Akt (Ser473) and total Akt, the ratio of phosphorylated Akt and total Akt with insulin stimulation to the ratio of phosphorylated Akt and total Akt without insulin stimulation [(pAkt/Total Akt) Insulin+]/[(pAkt/Total Akt) Insulin-] was determined and shown in FIGS. 1 and 2 as the phosphorylation index (stimulation index). In the Figures, the average values of the calculated phosphorylation indices are shown in bar graphs. The symbols (●, ▪, ▴, ▾, □, Δ, ∇) in the Figures indicate the calculated values of the phosphorylation index obtained for each sample.

C57BL/6J mice [2] = assay: Amount of neutral fat in muscle and palmitic acid in neutral fat in muscle of mice under motility limitation; format: in vivo, mouse; details: 0.2 wt % in feed, narrow cage, 28 days, vs motility limitation+lard ingestion group
Description: (§1) Using C57BL/6J mice, the effect of ingestion of γ-glutamyl peptide on the changes in muscle quality and muscle function induced by narrowing the area of the cage used for rearing to limit exercise was investigated.
C57BL/6J mice were grouped into 3 groups shown in Table 2 such that the body weight, grip strength, and lean body weight would be uniform, and one mouse was housed per cage and reared. As cages for rearing mice, a wide cage (width 220 mm×length 320 mm×height 165 mm) and a narrow cage (width 110 mm×length 160 mm×height 130 mm) were used. […]
After the completion of the above-mentioned grip strength measurement, muscles (gastrocnemius muscles) were collected from the mice in each group, and the amount of neutral fat in the muscle, which is one of the indicators of muscle quality, and the amount of palmitic acid in neutral fat in the muscle were measured.
Fat ingredient was extracted according to a chloroform/methanol method from the collected muscle, and the neutral fat content was measured by a colorimetric method at 600 nm, as well as the neutral fat was fractionated and collected by thin layer chromatography (TLC). […] The neutral fat fraction was extracted again by a chloroform/methanol method, and the composition of the fatty acid in the neutral fat was analyzed, and the amount of palmitic acid was measured. The composition of the fatty acid was analyzed by gas chromatography. […]

[3] = tested on: Sprague-Dawley (SD) male rats; assay: Walking function (stride of walking, length and width) in rats fed a high-fat diet; format: in vivo, rat; details: 0.2 wt % in 30 wt % fat feed plus exercise, 5th week; widening of width and narrowing of length; FIG. 4
Procedure: (§2) Furthermore, the exercise groups (exercise group and exercise+γEV group) were made to perform exercise once a week under the exercise load conditions shown below.
(§3) At the 5th week of feeding the high-fat diet, the exercise function (walking function) was evaluated as follows. At the 6th week of feeding the high-fat diet, an autopsy was performed, and the muscle (tibialis anterior muscle) weight was measured. As described below, the muscle insulin sensitivity was evaluated, the fatty acid composition in muscle diacylglycerol was analyzed, and the muscle function was evaluated.
The walking function was evaluated by walking the rat without an anesthesia and observing the state of walking. India ink was applied to the plantar part of the both legs of the rat, and the rat was made to walk through a cylindrical tunnel with Japanese writing paper laid therein and the stride of walking (width and length) was measured based on the trace of the right leg and the left leg after walking, and the walking function was evaluated.
The respective measurement or evaluation or analysis results of the above-mentioned (2) to (4) are shown by mean±standard error in FIG. 3 to FIG. 7. […]

[4] = tested on: Sprague-Dawley (SD) male rats; assay: Muscle (tibialis anterior muscle) weight in rats fed a high-fat diet with exercise load; format: in vivo, rat; details: 0.2 wt % in 30 wt % fat feed plus exercise, 6th week; compared with exercise only group; FIG. 3
Procedure: as §2, §3
The exercise was performed using the left leg of the rat by applying a local resistance exercise load. A rat under isoflurane anesthesia was placed in an ankle exercise device for small animals (Bioresearch Center K.K.), a skin stimulation electrode was attached to the tibialis anterior muscle, and contraction was caused by electrical stimulation. At the same time, the tibialis anterior muscle was pulled in the direction opposite to the contraction direction, and an extension load was applied. The exercise load setting conditions are shown below.
(i) contraction (electric) load condition: 4 mA to 5 mA, 100 Hz, 1100 msec
(ii) extension load condition: angle of left leg joint was extended from 90° to 135° at rate=100 deg/sec […]

C57BL/6J mice [5] = assay: Grip strength (muscle strength) of mice under motility limitation; format: in vivo, mouse; details: 0.2 wt % in feed, narrow cage, 28 days; vs motility limitation+lard ingestion group; FIG. 8
Description: as §1
C57BL/6J mice were grouped into 3 groups shown in Table 2 such that the body weight, grip strength, and lean body weight would be uniform, and one mouse was housed per cage and reared. As cages for rearing mice, a wide cage (width 220 mm×length 320 mm×height 165 mm) and a narrow cage (width 110 mm×length 160 mm×height 130 mm) were used. In addition, as an experimental diet, a diet containing 20 wt % casein and 7 wt % lard or a diet containing 20 wt % casein, 7 wt % lard, and 0.2 wt % γ-glutamyl valine (γEV) was supplied.
After rearing for 28 days under the above-mentioned conditions, the grip strength of each mouse was measured and the muscle strength was evaluated.
The grip strength of the mouse was measured using a grip strength meter for small animals (“Chatillon”, Columbus Instruments). […] The aforementioned grip strength was consecutively measured five times, and the average value was calculated and used as the grip strength value of each individual. […]

[6] = tested on: insulin receptor substrate-1 (IRS-1); assay: Muscle insulin sensitivity (IRS-1 serine phosphorylation activity, Western blotting) in rats fed a high-fat diet; format: in vivo, rat; details: 0.2 wt % in 30 wt % fat feed plus exercise, 6th week; vs high fat group p<0.01; FIG. 5
Procedure: as §2, §3
As an index of muscle insulin sensitivity, insulin receptor substrate-1 (IRS-1) serine phosphorylation activity was evaluated by a Western blotting (WB) method. […]
As the antibodies, anti-Phospho-IRS-1 (Ser307) antibody (Cell Signaling Technologies Inc.), and anti-total IRS-1 antibody (Cell Signaling Technologies Inc.) were used, the expression levels of Phospho-IRS-1 (Ser307) and total IRS-1 were quantified using Western blot-chemiluminescent imaging system (Fusion FX) (Vilber-Lourmat Inc.).
As an index of insulin sensitivity, the ratio of Phospho-IRS-1 (Ser307) expression level to total IRS-1 expression level [(Phospho-IRS-1 (Ser307))/(total IRS-1)] was determined. […]

[7] = tested on: Sprague-Dawley (SD) male rats; assay: Amount of diacylglycerol and fatty acid composition in muscle diacylglycerol in rats fed a high-fat diet; format: in vivo, rat; details: 0.2 wt % in 30 wt % fat feed plus exercise, 6th week, vs high fat group p<0.01
Procedure: as §2, §3
The amount of diacylglycerol (DAG) in muscle, which is highly related to muscle insulin sensitivity, was analyzed, and the composition of fatty acid contained in DAG was analyzed.
The fat ingredient in the muscle collected during autopsy was extracted according to a chloroform/methanol method, and the DAG fraction was extracted using thin layer chromatography (TLC). […] DAG was quantified at 600 nm by a colorimetric method.
The DAG fraction after development was extracted by a chloroform/methanol method, and fatty acid in DAG was quantified. As fatty acids, 9 kinds of fatty acids (lauric acid, myristic acid, palmitoleic acid, palmitic acid, linolenic acid, linoleic acid, oleic acid, stearic acid, arachidonic acid) mainly contained in the living body were selected and analyzed using gas chromatography. […]

[8] = added simultaneously with 0.5 mM FFA, FIG. 2

SMILES | insulin signal that declined due to FFA [1, 8] | amount of neutral fat in the muscle (gastrocnemius muscle) (C57BL/6J mice [2]; FIG. 9) | amount of palmitic acid in the neutral fat in the muscle (gastrocnemius muscle) (C57BL/6J mice [2]; FIG. 10) | stride of walking (length and width) during walking [3] | muscle weight (tibialis anterior muscle, weight ratio to body weight) [4] | grip strength (C57BL/6J mice [5]) | muscle insulin signal increasing action compared with NAC ([1]; 100 μM vs NAC 5 mM, FIG. 2) | muscle insulin signal increasing action compared with NAC ([1]; 300 μM vs NAC 5 mM, FIG. 1) | decline in muscle insulin signal due to FFA (phosphorylation index) ([1]; 300 μM, added simultaneously with 0.5 mM FFA, 100 nM insulin stimulation, FIG. 1) | decline in muscle insulin sensitivity [(Phospho-IRS-1 (Ser307))/(total IRS-1)] [6] | increase in the amount of DAG in skeletal muscle ([7]; FIG. 6) | amount of palmitic acid in muscle DAG ([7]; FIG. 7)
N[C@@H](CCC(=O)N[C@@H](CS)C(=O)O)C(=O)O [γEC, γ-L-glutamyl-L-cysteine] | increase the insulin signal | – | – | – | – | – | – | – | – | – | – | –
CC(C)[C@H](NC(=O)CC[C@H](N)C(=O)O)C(=O)O [γEV, γ-L-glutamyl-L-valine] | – | significantly (p<0.1) small | significantly (p<0.1) small | suppressed to the same levels as in the normal group | increase in the muscle weight tended to be promoted | significantly (p<0.05) improved | superior to that of NAC | equal to or higher than that of NAC | recovered | significantly suppressed | significantly suppressed | significantly lower than in the high fat group
CC(C)[C@H](NC(=O)CC[C@H](N)C(=O)O)C(=O)NCC(=O)O [γEVG, γ-L-glutamyl-L-valylglycine] (γGlu-Val-Gly-OH) | increase the insulin signal | – | – | – | – | – | – | – | – | – | – | –
